Assay results reported in US20190134005A1 (BioMarin Pharmaceutical Inc., priority 2016, published 2019).
Read-outs that look alike come from different tables or passages of the source.

Molecular target: T1, human CGT (Homo sapiens, UniProt Q16880)
T1 sequence (Q16880 21-541): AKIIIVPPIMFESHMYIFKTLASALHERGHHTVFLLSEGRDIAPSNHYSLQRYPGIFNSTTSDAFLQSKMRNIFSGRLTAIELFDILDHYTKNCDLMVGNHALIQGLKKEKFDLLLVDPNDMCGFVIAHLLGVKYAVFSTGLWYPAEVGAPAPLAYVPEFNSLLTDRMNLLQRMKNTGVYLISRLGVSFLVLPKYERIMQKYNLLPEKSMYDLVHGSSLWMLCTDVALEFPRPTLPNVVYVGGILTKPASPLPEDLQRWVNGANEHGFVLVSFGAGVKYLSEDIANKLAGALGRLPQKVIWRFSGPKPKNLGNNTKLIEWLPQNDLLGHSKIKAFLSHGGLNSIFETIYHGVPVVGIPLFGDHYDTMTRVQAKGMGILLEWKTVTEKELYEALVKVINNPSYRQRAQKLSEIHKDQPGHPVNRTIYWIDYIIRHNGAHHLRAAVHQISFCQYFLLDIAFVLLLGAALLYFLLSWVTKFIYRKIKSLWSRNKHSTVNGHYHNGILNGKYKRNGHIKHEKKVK
Test: Assay 1: CGT Enzymatic Assay (RapidFire/MS/MS, 0.01% Tween 80)
Format: biochemical

[1] = Table 1, Compounds of Formula (I) and Formula (II), CGT enzymatic assay, read-out: IC50
[2] = Table 1, Compounds of Formula (I) and Formula (II), CGT enzymatic assay, C6-NBD-dihydro-galactosylceramide readout, read-out: IC50

Row | Structure (SMILES) | IC50 [1] | also measured
1 | O=C1N(c2ccc(Br)cc2)C(=O)C(O)(c2cc3ccccc3[nH]2)N1c1ccc(Br)cc1 (stereo not drawn) [Example 210, 1,3-bis(4-bromophenyl)-5-hydroxy-5-(1H-indol-2-yl)imidazolidine-2,4-dione] | – | IC50: 10000 to 50000 nM
2 | Cc1ccc(N2C(=O)N(c3ccc(C)cc3)C(O)(c3cccc(C#N)c3)C2C)cc1 (stereo not drawn) [Compound 105, 3-(4-hydroxy-5-methyl-2-oxo-1,3-di-p-tolylimidazolidin-4-yl)benzonitrile] | < 1000 nM | –
3 | C[C@@H]1N(c2ccc(Br)cc2)C(=O)N(c2ccc(Br)cc2)C1(O)c1cccc(Cl)c1 (stereo partly drawn) [Compound 73-1, (5S)-1,3-bis(4-bromophenyl)-4-(3-chlorophenyl)-4-hydroxy-5-methylimidazolidin-2-one] | < 1000 nM | –
4 | CC1(C)N(c2ccc(Cl)cc2)C(=O)N(c2ccc(C#N)cc2)C1(O)c1cccc(C#N)c1 (stereo not drawn) [Example 323, 3-(1-(4-chlorophenyl)-3-(4-cyanophenyl)-4-hydroxy-5,5-dimethyl-2-oxoimidazolidin-4-yl)benzonitrile] | – | IC50 [2]: < 1000 nM
5 | Cc1csc(C2(O)[C@H](C)N(c3ccc(Br)cc3)C(=O)N2c2ccc(Br)cc2)c1 (stereo partly drawn) [Compound 97-1, (5S)-1,3-bis(4-bromophenyl)-4-hydroxy-5-methyl-4-(4-methylthiophen-2-yl)imidazolidin-2-one] | 1000 to 10000 nM | –
6 | C[C@H]1N(c2ccc(Cl)cc2)C(=O)N(c2ccc(Cl)cc2)C1(O)c1cccc(C#N)c1 (single isomer, unassigned) [Compound 99-2] | < 1000 nM | –
7 | CCC1(CC)N(c2ccc(Cl)cc2)C(=O)N(c2ccc(Cl)cc2)C1(O)c1cccc(C#N)c1 (stereo not drawn) [Example 321, 3-(1,3-bis(4-chlorophenyl)-5,5-diethyl-4-hydroxy-2-oxoimidazolidin-4-yl)benzonitrile] | – | IC50 [2]: < 1000 nM
8 | CCC1N(c2ccc(Cl)cc2)C(=O)N(c2ccc(Cl)cc2)C1(O)c1cccc(OC(F)F)c1 (stereo not drawn) [Compound 118, 1,3-bis(4-chlorophenyl)-4-(3-(difluoromethoxy)phenyl)-5-ethyl-4-hydroxyimidazolidin-2-one] | < 1000 nM | –
9 | COc1ccc(N2C(=O)N(c3ccc(OC)cc3)C(O)(c3cccc(OC(F)(F)F)c3)C2C(C)C)cc1 (racemic) [Example 329, (5S)-4-hydroxy-5-isopropyl-1,3-bis(4-methoxyphenyl)-4-(3-(trifluoromethoxy)phenyl)imidazolidin-2-one and (5R)-4-hydroxy-5-isopropyl-1,3-bis(4-methoxyphenyl)-4-(3-(trifluoromethoxy)phenyl)imidazolidin-2-one] | – | IC50 [2]: < 1000 nM
10 | C[C@@]1(c2cccc(Cl)c2)C(O)N(c2ccc(Cl)cc2)C(=O)N1c1ccc(Cl)cc1 (single isomer, unassigned) [Compound 149-2] | < 1000 nM | –
11 | Cc1ccc(N2C(=O)N(c3ccc(C)cc3)C(O)(c3cccc(C(C)(F)F)c3)C23COC3)cc1 (stereo not drawn) [Compound 286, 8-(3-(1,1-difluoroethyl)phenyl)-8-hydroxy-5,7-di-p-tolyl-2-oxa-5,7-diazaspiro[3.4]octan-6-one] | – | IC50 [2]: < 1000 nM
12 | O=c1n(-c2ccc(Cl)cc2)c(-c2cccc(OC(F)(F)F)c2)c(C2CC2)n1-c1ccc(Cl)cc1 [Compound 65, 1,3-bis(4-chlorophenyl)-4-cyclopropyl-5-(3-(trifluoromethoxy)phenyl)-1,3-dihydro-2H-imidazol-2-one] | < 1000 nM | –
13 | Cc1ccc(C2(O)CN(c3ccc(Br)cc3)C(=O)N2c2ccc(Br)cc2)cc1 (stereo not drawn) [Example 23, 1,3-bis(4-bromophenyl)-4-hydroxy-4-(p-tolyl)imidazolidin-2-one] | > 50000 nM | –
14 | Cc1ccc(N2C(=O)N(c3ccc(C)cc3)C(O)(c3cccc(C#N)c3)C23COC3)cc1 (stereo not drawn) [Compound 287, 3-(8-hydroxy-6-oxo-5,7-di-p-tolyl-2-oxa-5,7-diazaspiro[3.4]octan-8-yl)benzonitrile] | – | IC50 [2]: < 1000 nM
15 | CCc1ccc(N2C(=O)N(c3ccc(C#N)cc3)C3(COC3)C2(O)c2cccc(OC(F)(F)F)c2)cc1 (stereo not drawn) [Example 337, 4-(7-(4-ethylphenyl)-8-hydroxy-6-oxo-8-(3-(trifluoromethoxy)phenyl)-2-oxa-5,7-diazaspiro[3.4]octan-5-yl)benzonitrile] | – | IC50 [2]: < 1000 nM
16 | O=c1n(-c2ccc(Br)cc2)c(-c2ccccc2)c(C2CC2)n1-c1ccc(Br)cc1 [Compound 249, 1,3-bis(4-bromophenyl)-4-cyclopropyl-5-phenyl-1,3-dihydro-2H-imidazol-2-one] | < 1000 nM | –
17 | O=C1N(c2ccc(Cl)cc2)CC(O)(c2cc(Cl)cc(Cl)c2)N1c1ccc(Cl)cc1 (stereo not drawn) [Compound 85, 1,3-bis(4-chlorophenyl)-4-(3,5-dichlorophenyl)-4-hydroxyimidazolidin-2-one] | 1000 to 10000 nM | –
18 | CCCC1N(c2ccc(Cl)cc2)C(=O)N(c2ccc(Cl)cc2)C1(O)c1cccc(C#N)c1 (stereo not drawn) [Compound 101, 3-(1,3-bis(4-chlorophenyl)-4-hydroxy-2-oxo-5-propylimidazolidin-4-yl)benzonitrile] | < 1000 nM | –
19 | CCCc1c(-c2ccccc2)n(-c2ccc(Br)cc2)c(=O)n1-c1ccc(Br)cc1 [Compound 261, 1,3-bis(4-bromophenyl)-4-phenyl-5-propyl-1,3-dihydro-2H-imidazol-2-one] | 1000 to 10000 nM | –
20 | COC[C@@H]1N(c2ccc(Cl)cc2)C(=O)N(c2ccc(Cl)cc2)C1(O)c1cccc(C(F)(F)F)c1 (stereo partly drawn) [Compound 92-1, (5S)-1,3-bis(4-chlorophenyl)-4-hydroxy-5-(methoxymethyl)-4-(3-(trifluoromethyl)phenyl)imidazolidin-2-one] | < 1000 nM | –
21 | C[C@@H]1N(c2ccc(Cl)cc2)C(=O)N(c2ccc(Cl)cc2)C1(O)c1cccc(Cl)c1 (single isomer, unassigned) [Compound 62-1] | < 1000 nM | –
22 | Cc1ccc(N2C(=O)N(c3ccc(C#N)cc3)C(O)(c3cccc(OC(F)(F)F)c3)C23COC3)cc1 (stereo not drawn) [Example 307, 4-(8-hydroxy-6-oxo-5-(p-tolyl)-8-(3-(trifluoromethoxy)phenyl)-2-oxa-5,7-diazaspiro[3.4]octan-7-yl)benzonitrile] | – | IC50 [2]: < 1000 nM
23 | CCc1cccc(C2(O)[C@H](C)N(c3ccc(Cl)cc3)C(=O)N2c2ccc(Cl)cc2)c1 (stereo partly drawn) [Compound 69-1, (5S)-1,3-bis(4-chlorophenyl)-4-(3-ethylphenyl)-4-hydroxy-5-methylimidazolidin-2-one] | < 1000 nM | –

Continued, in another order:

Row | IC50 [1] | Structure (SMILES) | also measured
24 | 10000 to 50000 nM | O=c1n(-c2ccc(Br)cc2)c2c(n1-c1ccc(Br)cc1)CCCC2 [Example 18] | –
25 | > 50000 nM | O=C1N(c2ccc(Br)cc2)CC(O)(c2ccc3ccccc3c2)N1c1ccc(Br)cc1 (stereo not drawn) [Example 24, 1,3-bis(4-bromophenyl)-4-hydroxy-4-(naphthalen-2-yl)imidazolidin-2-one] | –
26 | < 1000 nM | CC(C)c1c(-c2cccc(C#N)c2)n(-c2ccc(Cl)cc2)c(=O)n1-c1ccc(Cl)cc1 [Example 44, 3-(1,3-bis(4-chlorophenyl)-5-isopropyl-2-oxo-2,3-dihydro-1H-imidazol-4-yl)benzonitrile] | –
27 | > 50000 nM | O=C1N(c2ccc(F)cc2)C(=O)C(O)(c2ccccc2)N1c1ccc(F)cc1 (stereo not drawn) [Example 161, 1,3-bis(4-fluorophenyl)-5-hydroxy-5-phenylimidazolidine-2,4-dione] | –
28 | > 50000 nM | O=C1N(c2ccc(Br)cc2)C(=O)C(O)(c2nccs2)N1c1ccc(Br)cc1 (stereo not drawn) [Example 201, 1,3-bis(4-bromophenyl)-5-hydroxy-5-(thiazol-2-yl)imidazolidine-2,4-dione] | –
29 | < 1000 nM | C[C@@]1(c2cccc(C(F)(F)F)c2)C(O)N(c2ccc(Cl)cc2)C(=O)N1c1ccc(Cl)cc1 (stereo partly drawn) [Example 190-2, (4R)-1,3-bis(4-chlorophenyl)-5-hydroxy-4-methyl-4-(3-(trifluoromethyl)phenyl)imidazolidin-2-one] | –
30 | < 1000 nM | Cc1cccc(C2(O)[C@H](C)N(c3ccc(Cl)cc3)C(=O)N2c2ccc(Cl)cc2)c1 (stereo partly drawn) [Example 36-1] | –
31 | > 50000 nM | Cc1ccccc1C1(O)CN(c2ccc(Br)cc2)C(=O)N1c1ccc(Br)cc1 (stereo not drawn) [Example 14, 1,3-bis(4-bromophenyl)-4-hydroxy-4-(o-tolyl)imidazolidin-2-one] | –
32 | < 1000 nM | CCC1(C)N(c2ccc(Cl)cc2)C(=O)N(c2ccc(Cl)cc2)C1(O)c1cccc(OC(F)(F)F)c1 (stereo not drawn) [Example 163, 1,3-bis(4-chlorophenyl)-4-ethyl-5-hydroxy-4-methyl-5-(3-(trifluoromethoxy)phenyl)imidazolidin-2-one] | –
33 | < 1000 nM | Cc1ccc(N2C(=O)N(c3ccc(C)cc3)C(O)(c3cccc(OC(F)(F)F)c3)C2(C)C)cc1 (stereo not drawn) [Example 176, 4-hydroxy-5,5-dimethyl-1,3-di-p-tolyl-4-(3-(trifluoromethoxy)phenyl)-imidazolidin-2-one] | –
34 | < 1000 nM | C[C@]1(C(F)(F)F)N(c2ccc(Cl)cc2)C(=O)N(c2ccc(Cl)cc2)C1(O)c1cccc(C#N)c1 (single isomer, unassigned) [Example 177-1] | –
35 | 1000 to 10000 nM | O=C1N(c2ccc(Cl)cc2)C2(CC2)C(O)(c2cccc(O)c2)N1c1ccc(Cl)cc1 (stereo not drawn) [Example 227, 4,6-bis(4-chlorophenyl)-7-hydroxy-7-(3-hydroxyphenyl)-4,6-diazaspiro[2.4]heptan-5-one] | –
36 | 10000 to 50000 nM | O=C1N(c2ccc(Br)cc2)C(=O)C(O)(c2ccc[nH]2)N1c1ccc(Br)cc1 (stereo not drawn) [Example 211, 1,3-bis(4-bromophenyl)-5-hydroxy-5-(1H-pyrrol-2-yl)imidazolidine-2,4-dione] | –
